“And” between values parts separate entries of the source, which are not always exact repeats. Equal entries are not always repeated. Where two headings read alike, the source gives them in different places.
Legend:
Assay type in all cases: in vivo
[1] = test system: ulcer formation induced by stress; test: stress ulcer in rats, immobilization-water immersion method; details: for activity on ulcer formation induced by stress: orally; for Inhibition Rate / ED50: stress ulcer; for ED50: per os
From the text: Since 50 microns is a common particle diameter in pharmaceutical preparations, it was most surprising that such significant and important advantages accrued according to the present invention. Inhibition activity against stress ulcer in rats of the compound and pharmaceutically acceptable acid additio salts in the finely pulverized form of the present invention are set forth in Table 2.

male rats = test: toxicity on intraperitoneal injection (LD50); details: for LD50: injected intraperitoneally, male rats, limits given in brackets
From the text: This decrease in toxicity is totally unexpected and represents a significant and important advance in the art.

[2] = body weight increase inhibition on chronic oral administration; details: rats; compared with a maleate salt having an average particle diameter of about 50 microns
Experimental: A further advantage results from body weight increase inhibition which is one of the main side effects of the compound and salts of the present invention. When 10 mg/kg or more per day of either the compound or maleate salt is chronically administered to rats orally, body weight increase is inhibited. This is a side effect of triazines of this type. […] However, when the compound or a pharmaceutically acceptable acid addition salt thereof according to the present invention having an average particle diameter of about 8 microns was administered, the appearance of the side effect was only transient and moderate and the recovery of body weight was far faster as compared to that occurring when the compound was administered having an average particle diameter of about 50 microns.
The average particle sizes were 8 microns for the compound according to the present invention as compared to the same compound having an average particle diameter of 50 microns.

SMILES | activity on ulcer formation induced by stress ([1]; dosage of 5 mg/kg) | Inhibition Rate ([1]; 0.37 mg/kg per os, three values, 0.37 mg/kg) | Inhibition Rate ([1]; 3.72 mg/kg per os, three values, 3.72 mg/kg) | LD50 (male rats) [mg/kg] | LD50 (male rats; listed as the same compound having an average particle diameter of about 50 microns) [mg/kg] | ED50 ([1]; Rattus norvegicus, po, determined from the data of Table 2, read-out: ED50) [mg/kg] | activity on ulcer formation induced by stress ([1]; dosage of 1 mg/kg) | Inhibition Rate ([1]; 0.3 mg/kg) [%] | Inhibition Rate ([1]; 1.0 mg/kg) [%] | Inhibition Rate ([1]; 3.0 mg/kg) [%] | Inhibition Rate ([1]; 10 mg/kg) [%] | Inhibition Rate ([1]; 30 mg/kg) [%] | rats killed (male rats; intraperitoneal injection, dosages up to 3000 mg/kg) | ED50 ([1]; determined from the data of Table 2) [mg/kg] | improvement in body weight side effect [2] | LD50 (male rats; listed as the maleate salt according to the present invention) [mg/kg]
Nc1nc(N)nc(-c2cc(Cl)ccc2Cl)n1 [2,4-diamino-6-(2,5-dichlorophenyl)-1,3,5-triazine] | ineffective | 37% and 46% and 29% | 62% and 47% and 33% | 495 | 1740 | – | – | – | – | – | – | – | – | – | – | –
Nc1nc(N)nc(-c2cc(Cl)ccc2Cl)n1 [Substance (I), 2,4-diamino-6-(2,5-dichlorophenyl)-1,3,5-triazine] | – | – | – | – | – | 1.22 | effective | 33 | 45 | 63 | 70 | 85 | no rats were killed | – | – | –
Nc1nc(N)nc(-c2cc(Cl)ccc2Cl)n1 [Substance (II), 2,4-diamino-6-(2,5-dichlorophenyl)-1,3,5-triazine] | – | – | – | – | – | – | – | 35 | 51 | 70 | 85 | – | – | 0.90 | particularly dramatic | 835

— patent publication EP0114908A1, “Finely pulverized 2,4-diamino-6-(2,5-dichlorophenyl)-1,3,5-triazine and pharmaceutically acceptable acid addition salts thereof” (NIPPON SHINYAKU COMPANY, LIMITED, priority 1983, dated 1984)
